“Also recorded” adds a separate entry of the source.
Key:
[1] = system: primary oligodendrocyte and oligodendrocyte precursor cells (OL/OPCs); assay: Primary OPC culture differentiation (MBP immunostaining, DAPI); format: cell-based, mouse; conditions: for number of MBP+ OLs (differentiated OLs) / branched OLs / complex branching cells: 10 nM, vs vehicle-treated cells; for number of MBP+ OLs (differentiated OLs): 3 days in differentiating media
Experimental: Primary OPC Cultures: Primary OPCs, isolated from postnatal day P1 C57BL/6 male and female mouse cortices as described previously, were treated with 10 nM ligands in differentiating medium for 3 days (Tiwari-Woodruff et al., 2001; Tiwari-Woodruff et al., 2006). Primary OPC were cultured into 8-well chamber slides (three wells per condition, 2.5×10^5 cells/well) for three days to attach and […] in differentiating media (consisting of DMEM-F12 with triiodothyronine- and thyroxine-containing Sato as well as penicillin, streptomycin, insulin, N-acetyl-L-cysteine, forskolin, ciliary neurotrophic factor, neurotrophin-3, and platelet-derived growth factor receptor α (Tiwari-Woodruff et al., 2001)). A positive control (IndCl), a negative control (Vehicle consisting of the media+EtOH mixture used to dissolve IndCl), and a normal control (differentiating media alone) were used for comparison. At the end of the treatment period, cells were fixed, stained by immunocytochemistry (primary antibody polyclonal chicken myelin basic protein (MBP, Millipore AB9348), shown in green and co-stained with nuclear stain—DAPI shown in blue), and imaged with an Olympus BX61 confocal microscope (Olympus America Inc., Center Valley, Pa.) at 10× magnification (3 images per well). Cells were counted using the ImageJ multipoint tool, and counts were then divided by the image area (mm^2). Average cell density for each condition was then divided by the normal condition cell density. Analysis of OL differentiation consisted of counting the number of MBP+ cells and process extensions that were longer than the respective cell-body diameter and tracking the number of highly branched MBP+ cells (with three or more processes) (Monnerie et al., 2017). Statistics were performed using GraphPad Prism 6 Software (La Jolla, Calif.). One-way ANOVA with Tukey's posthoc test for multiple comparisons was used to generate p-values, and data are presented as mean SEM (with α≤0.05).
Primary OPC cultures were used as a convenient cell-based assay to characterize the proliferation and/or differentiation effects of the new IndCl analogues and to select those most suitable for more extensive studies to be done in comparison with the parental ligand, IndCl. 48 hours after plating OPCs, one of seven IndCl analogues (FIG. 1A) was added to differentiating media at a concentration of 10 nM (De Angelis et al., 2005; Saijo et al., 2011). OPCs were allowed to differentiate for 3 days in the presence of IndCl or analogues, at which point they were fixed, immunostained for OPC/OL markers, and quantified. […] The total number of cells in culture was not altered by any treatment (FIGS. 1B and 1D).

ERα = target: T1, ERα (Homo sapiens, UniProt P03372); assay: Relative binding affinity (RBA) to estrogen receptor alpha, radiometric measurement; conditions: relative value to 100% for E2 by radiometric measurement
T1 sequence (P03372 1-595): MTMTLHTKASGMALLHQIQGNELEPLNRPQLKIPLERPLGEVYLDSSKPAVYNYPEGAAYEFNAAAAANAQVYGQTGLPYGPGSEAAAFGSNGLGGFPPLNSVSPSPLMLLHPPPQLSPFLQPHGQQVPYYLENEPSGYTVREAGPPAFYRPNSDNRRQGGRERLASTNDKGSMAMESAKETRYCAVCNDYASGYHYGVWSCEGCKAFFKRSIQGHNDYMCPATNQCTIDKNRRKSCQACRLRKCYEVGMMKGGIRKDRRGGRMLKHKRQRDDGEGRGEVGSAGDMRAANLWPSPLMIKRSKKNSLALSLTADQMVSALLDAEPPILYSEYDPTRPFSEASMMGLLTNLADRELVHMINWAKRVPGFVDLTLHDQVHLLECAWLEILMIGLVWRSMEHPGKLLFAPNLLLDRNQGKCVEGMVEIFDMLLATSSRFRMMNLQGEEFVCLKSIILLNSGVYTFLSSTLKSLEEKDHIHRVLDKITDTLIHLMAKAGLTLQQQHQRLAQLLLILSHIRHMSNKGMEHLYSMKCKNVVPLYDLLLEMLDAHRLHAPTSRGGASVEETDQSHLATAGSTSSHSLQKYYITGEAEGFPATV

corpus callosum axons = assay: Electron microscopy g-ratio of corpus callosum axons of EAE mice; format: in vivo, mouse; design: key to Myelination: g-ratio: ‘+’ indicate marker was significantly (p ≤ 0.05) increased in treatment group relative to vehicle; ‘−’ indicates marker was significantly (p ≤ 0.05) decreased in treatment group relative to vehicle; ○: ‘o’ indicate marker did not change relative to vehicle; conditions: vs vehicle; for Myelination: g-ratio: Post (therapeutic, postEAE) treatment of EAE mice
Experimental: Transmission Electron Microscopy: Mice were perfused with PBS as above followed by paraformaldehyde/glutaraldehyde to preserve ultrastructure and Epon embedded as previously described (Crawford et al., 2010). Serial ultrathin sections of Epon-embedded CC were stained with uranyl acetate-lead citrate were used for electron microscopy analysis (19). G-ratio was measured using Fiji v1.0 Software (NIH).
EM analysis (FIGS. 8A and 8B): Within a given field imaged, g-ratios were calculated by comparing mean ratio of inner axonal diameter to total outer diameter for all myelinated and non-myelinated fibers. […] Treatment with IndCl or either analogue decreased both non-myelinated axons numbers and g-ratio relative to vehicle.

| Structure (SMILES) | number of MBP+ OLs (differentiated OLs) [1] | RBA ERα (ERα) | Myelination: g-ratio (corpus callosum axons) | g-ratio of callosal axons (corpus callosum axons; therapeutic treatment (postEAE)) | branched OLs / complex branching cells [1] | MBP+/DAPI ratio (OPC differentiation) ([1]; FIG. 10B) |
| --- | --- | --- | --- | --- | --- | --- |
| Oc1ccc(-n2nc3ccc(O)cc3c2Cl)cc1 [IndCl, chloroindazole] | significantly increased | 0.03% | − | decreased |  |  |
| Oc1ccc(-n2nc3ccc(O)cc3c2Cl)c(Cl)c1 [IndCl-o-Cl, 3-chloro-2-(2-chloro-4-hydroxyphenyl)-2H-indazol-5-ol] | significant increase; also recorded: significantly increased | 0.40% | − |  | increase in the percentage of branched OLs |  |
| Cc1cc(O)ccc1-n1nc2ccc(O)cc2c1Cl [IndCl-o-Me, 3-chloro-2-(4-hydroxy-2-methylphenyl)-2H-indazol-5-ol] | significant increase; also recorded: significantly increased | 0.43% | − |  | increase in the percentage of branched OLs | greatest increase |
